SMILES strings stand for the structures. ≈ marks a conversion by molar mass, not a printed value.

Experimental findings from article PMC5816626, “A multitarget approach to drug discovery inhibiting Mycobacterium tuberculosis PyrG and PanK” (Scientific Reports, 2018) are described below.

What all share (type): cell-based, Mycobacterium tuberculosis
For test [1], the system named is M. tuberculosis 88.3, 88.4, 88.5, 88.9, 88.11, 88.12 mutants (coaA A620G (Q207R)).
The test system of test [2] is M. tuberculosis 82.21 mutant (ethA Δ1283–4, coaA A620G (Q207R)).
Test [3] has as its system M. tuberculosis 81.10 mutant (ethA Δ1109–1137).
In test [4] the test system is M. tuberculosis 88.1 mutant (coaA A620G (Q207R)).
The test system of test [5] is M. tuberculosis 88.2 mutant (coaA A620G (Q207R)).

A word on the MIC: it is the lowest concentration found to suppress growth. Low readings indicate inhibition by little substance, high ones a need for much substance. `CCc1cc(C(N)=S)ccn1` [Ethionamide, reference compound]: the MIC in test [1] is 1 µg/mL (≈ 6.02 µM); in test [2], 10 µg/mL (≈ 60.2 µM); in test [3] it was 10 µg/mL (≈ 60.2 µM); in test [4], 1 µg/mL (≈ 6.02 µM); in test [5], 1 µg/mL (≈ 6.02 µM).

Consider `O=C(CCc1ccccc1)NC(=S)Nc1ccc(N2CCCCC2)cc1` [compound 7904688, 3-phenyl-N-[(4-piperidin-1-ylphenyl)carbamothioyl]propanamide], for which the MIC in test [1] is 10 µg/mL (≈ 27.2 µM); in test [2], more than 40 µg/mL; in test [3] it was more than 40 µg/mL; in test [4] it was 10 µg/mL (≈ 27.2 µM); in test [5], 10 µg/mL (≈ 27.2 µM).

As for `Cc1ccc(C(=O)Nc2ccc([N+](=O)[O-])cc2)s1` [compound 7947882, 5-methyl-N-(4-nitrophenyl)thiophene-2-carboxamide], the MIC in test [1] is 2.5 µg/mL (≈ 9.53 µM); in test [2], more than 40 µg/mL; in test [3], more than 40 µg/mL; in test [4] it was 2.5 µg/mL (≈ 9.53 µM); in test [5], 2.5 µg/mL (≈ 9.53 µM).

Regarding `CC1=CC=C(C(=O)Nc2ccc([N+](=O)[O-])cc2)S1(=O)=O` [compound 11426026], the MIC in test [1] is 2.5 µg/mL (≈ 8.5 µM); in test [2] it was 2.5 µg/mL (≈ 8.5 µM); in test [3] it was 1 µg/mL (≈ 3.4 µM); in test [4] it was 2.5 µg/mL (≈ 8.5 µM); in test [5], 2.5 µg/mL (≈ 8.5 µM).
